In patent US9636324B2, “Use of 15-benzylidence-14-deoxy-11, 12 -dehyroandrographolide derivative in manufacture of medicaments for protecting liver and anti-hepatitis C virus” (Zhengzhou University, priority 2012, dated 2017):

Tests used:
[1] = tested on: mice with carbon tetrachloride induced liver damage; experiment: Carbon tetrachloride induced chemical liver damage model in mice; format: in vivo, Kunming mice; settings: for ALT activity in serum vs model group / AST activity in serum vs model group: dosage groups not distinguished (0.66 and 0.88 mmol/kg); for ALT activity in serum vs model group / AST activity in serum vs model group / MDA level in liver homogenate vs model group / PGE2 level in liver homogenate vs model group: P<0.01; for MDA level in liver homogenate vs model group / PGE2 level in liver homogenate vs model group: dosage groups not distinguished; for magnitude of decrease in ALT activity compared to AD group / magnitude of decrease in AST activity compared to AD group / PGE2 content compared to AD group / ability to reduce lipid peroxide level in liver homogenate compared to AD group: P<0.05; for protective effect against liver damage induced by carbon tetrachloride (summary): mice, intragastric, 3 days
Procedure: Kunming mice of clean grade (male, weight 20±2 g), after adaptively fed for 3 days, are randomly divided into normal group, model group, bifendate positive control group (200 mg/kg), AD group (0.88 mmol/kg), low dosage group (0.66 mmol/kg) and high dosage group (0.88 mmol/kg) of compound A, B, C and D, with 8 mice in each group. Positive group and each test group are intragastrically given with respective suspension prepared with 0.5% CMC-Na, and normal group and model group are given with 0.5% CMC-Na. The drugs are given for 3 days, and 1 h after the last administration, all mice except those in the normal group are intraperitoneally injected with a single dose of 0.3% carbon tetrachloride in peanut oil (0.1 mL/10 g). After 16 h, the eyeball of the mice in each group is enucleated to collect blood, which is centrifuged at 3000 rpm for 15 min to separate serum. ALT and AST activities are tested respectively (Nanjing Jiancheng Bioengineering Institute). The left lobe of liver is taken to prepare 10% homogenate using physiological saline, MDA (Nanjing Jiancheng Bioengineering Institute) and PGE2 contents are determined. Experimental data are expressed as average±standard deviation (X±s), analyzed with SPSS 11.5 statistic software, with P<0.05 meaning there is a significant difference. Other agents, drugs and experimental methods are the same as in EXAMPLE 1. In experimental investigation of both models, the following grouping method is used: Kunming mice of clean grade (male, weight 20±2 g) are randomly divided into normal group, model group, bifendate group (200 mg/kg), AD group (0.88 mmol/kg), low dosage group (0.66 mmol/kg) and high dosage group (0.88 mmol/kg) of compound E, with 8 mice in each group. Other agents, drugs and experimental methods are the same as in EXAMPLE 1 and in EXAMPLE 4, respectively.

[2] = tested on: mice with ConA induced liver damage; experiment: ConA induced immunological liver damage model in mice; format: in vivo, Kunming mice; settings: for enzyme (ALT, AST) lowering effect compared to AD group: high dosage 0.88 mmol/kg vs AD 0.88 mmol/kg; for ability against liver lipid peroxidation compared with AD group: P<0.01 (B, C), P<0.05 (D); for protective effect against liver damage induced by ConA (summary): mice, intragastric, 3 days
Procedure: Kunming mice of clean grade (male, weight 20±2 g, supplied by the Laboratory Animal Center, Henan Province) are randomly divided into groups with 6 mice in each group. Bifendate (Xinchang Pharmaceutical Factory of Zhejiang Pharmaceutical Co., Ltd, 200 mg/kg) is used as positive control, andrographolide (AD) is provided by Furen Pharmaceutical Group Co., Ltd, and the test compounds are synthesized by the inventors with purities higher than 99.0%. Normal control group and model group are intragastrically given 0.5% sodium carboxymethylcellulose (CMC-Na), and test groups are given 0.5% CMC-Na suspensions with AD (0.88 mmol/kg), and low dosage (0.66 mmol/kg) and high dosage (0.88 mmol/kg) of compound A, B and C, respectively. The drugs are given for 3 days. One hour after the last administration, all mice except those in the normal control group are injected with a single dose of ConA (20 mg/kg) through the caudal vein. After 8 h, the eyeball is enucleated to collect blood, which is centrifuged at 3000 rpm for 15 min to separate serum. ALT and AST are tested according to the kit specification, respectively (Nanjing Jiancheng Bioengineering Institute). The left lobe of liver is taken to prepare 10% homogenate using physiological saline, MDA is determined according to the kit specification (Nanjing Jiancheng Bioengineering Institute). To 50 μL liver homogenate is added 2 mL of 0.5 mol/L KOH-methanol solution and kept at 50° C. water bath to isomerize for 20 minutes, then absorbance (A value) is measured at 278 nm, using the A value per mL of homogenate to represent the PGE2 content. Experimental data are expressed as average±standard deviation (X±s), analyzed with SPSS 11.5 statistic software, with P<0.05 meaning significant difference.
Kunming mice of clean grade (male, weight 20±2 g) are randomly divided into normal group, model group, bifendate (Zhejiang Wanbang Pharmaceutical Co., Ltd) positive control group (200 mg/kg), AD group (0.88 mmol/kg), low dosage group (0.66 mmol/kg) and high dosage (0.88 mmol/kg) group of compound D. ALT, AST, and MDA assay kits are purchased from Nanjing Jiancheng Bioengineering Institute. Other agents, drugs and experimental methods are the same as in EXAMPLE 1.
In experimental investigation of both models, the following grouping method is used: Kunming mice of clean grade (male, weight 20±2 g) are randomly divided into normal group, model group, bifendate group (200 mg/kg), AD group (0.88 mmol/kg), low dosage group (0.66 mmol/kg) and high dosage group (0.88 mmol/kg) of compound E, with 8 mice in each group. Other agents, drugs and experimental methods are the same as in EXAMPLE 1 and in EXAMPLE 4, respectively.

[3] = tested on: bovine viral diarrhea virus (BVDV-AV69); experiment: CPE observation of effects on cytopathy caused by BVDV in MDBK cells; settings: MDBK cells, BVDV-AV69; TC50 from MTT, IC50 from CPE
Procedure: Pharmaceutical effects of drugs of the invention against cytopathy caused by inoculation of BVDV virus are investigated using MDBK (NBL-1) cells (purchased from Chinese Academy of Science's Shanghai Center for Type Culture Collection) and bovine viral diarrhea virus (BVDV-AV69) (purchased from China Institute of Veterinary Drugs Control). Ribavirin (R; Henan RunHong Pharmaceutical Co., Ltd; batch number: E0909604) is used as positive drug control. MDBK cells are prepared as a suspension (1×10^5/mL) in RPMI1640 culture medium which contains 10% in volume fetal bovine serum (Zhejiang Tianhang Biotechnology Co., Ltd; batch number: 100524), 100 μg/mL streptomycin (Shenzheng Huayao Nanfang Pharmaceutical Co., Ltd; batch number: N09081), 100 U/mL penicillin (North China Pharmaceutical Co., Ltd; batch number: E0909604), and are seeded in 96 well plates (Costar, US) at 200 μL/well, placed in an incubator (Binder, Germany) at 37° C. with 5% CO2 to culture the cell. In 24 h when cells grow into a single layer, virus solution of 100 TCID50 (TCID50=10^−2.5) is added and incubated for 1.5 h. Maintenance medium with the drug is added at 200 μL/well after 3×PBS washes.
After digestion of MDBK cells with trypsin, cells with a concentration of 1×10^5/mL are seeded into 96 well plates at 200 μL/well, placed in an incubator at 37° C. with 5% CO2 for 24 h. After growing into a single layer, cells are attacked using 100 TCID50 (TCID50=10^−2.5) virus and incubated for 1.5 h. The virus-containing maintenance medium is discarded, and cells are washed with PBS, followed by addition of drug-containing maintenance medium with different concentrations, and incubation in 5% CO2 at 37° C. Normal cell control, virus control, drug treatment and ribavirin treatment groups are set. The cytopathy developing status is recorded everyday by observing under an inverted microscope.

[4] = tested on: mice with ethanol induced liver damage; experiment: Ethanol induced liver damage model in mice; format: in vivo, Kunming mice
Procedure: Kunming mice of clean grade (male, weight 20±2 g), after adaptively fed for 3 days, are randomly divided into normal group, model group, bifendate positive control group (200 mg/kg), AD group (0.88 mmol/kg), low (0.44 mmol/kg), median (0.66 mmol/kg) and high (0.88 mmol/kg) dosage groups of compound A, and median (0.66 mmol/kg) and high (0.88 mmol/kg) dosage groups of compound B, with 8 mice in each group. Positive group and each test group are intragastrically given with respective suspension prepared with 0.5% CMC-Na, and normal group and model group are given with 0.5% CMC-Na. The drugs are given for 3 days, and 1 h after the last administration, all mice except those in the normal group are intragastrically administrated with a single dose of 50% EtOH ([…]). After 16 h, the eyeball of the mice in each group is enucleated to collect blood, which is centrifuged at 3000 rpm for 15 min to separate serum. ALT and AST activities are tested respectively (Nanjing Jiancheng Bioengineering Institute). The left lobe of liver is taken to prepare 10% homogenate using physiological saline, MDA (Nanjing Jiancheng Bioengineering Institute) content is determined. Experimental data are expressed as average±standard deviation (X±s), analyzed with SPSS 11.5 statistic software, with P<0.05 meaning there is a significant difference. Other agents, drugs and experimental methods are the same as in EXAMPLE 1.

[5] = high dosage 0.88 mmol/kg vs AD 0.88 mmol/kg
[6] = low dosage 0.66 mmol/kg vs AD 0.88 mmol/kg
[7] = high dosage 0.88 mmol/kg, P<0.01
[8] = dosage groups not distinguished, P<0.01

Question: With `C=C1CCC2C(C)(CO)C(O)CCC2(C)C1C=CC1=CC(=Cc2cccc(Br)c2)OC1=O` (stereo not shown) [C] as the compound, how does the “ALT activity in serum vs model group” value [1] read?
Answer: notably suppress the increase

Question: What about the “AST activity in serum vs model group” value [1] of the same compound?
Answer: notably suppress the increase

Question: What about the “MDA level in liver homogenate vs model group” value [1] of the same compound?
Answer: effectively reduce

Question: And the “PGE2 level in liver homogenate vs model group” value [1]?
Answer: effectively reduce

Question: And the “magnitude of decrease in ALT activity compared to AD group” value (shortened to “magnitude of decrease in ALT activity”) [1, 5]?
Answer: significantly better

Question: And the “magnitude of decrease in AST activity compared to AD group” value (shortened to “magnitude of decrease in AST activity”) [1, 5]?
Answer: significantly better

Question: And the “PGE2 content compared to AD group” value ([1]; high dosage 0.88 mmol/kg)?
Answer: notably lower

Question: What about the “ability to reduce lipid peroxide level in liver homogenate compared to AD group” value ([1]; high dosage 0.88 mmol/kg) of the same compound?
Answer: stronger ability to reduce the lipid peroxide level

Question: What about the “magnitude of decrease in ALT activity” value [1, 6] of the same compound?
Answer: significantly better

Question: What about the “magnitude of decrease in AST activity” value [1, 6] of the same compound?
Answer: significantly better

Question: What about the “protective effect against liver damage induced by carbon tetrachloride (summary)” value [1] of the same compound?
Answer: protective effect

Question: And the “enzyme (ALT, AST) lowering effect compared to AD group” value ([2]; P<0.05)?
Answer: better enzyme lowering effect

Question: And the “MDA content in liver homogenate vs model group” value (shortened to “MDA content … vs model group”) [2, 7]?
Answer: more obvious effect

Question: What about the “PGE2 content in liver homogenate vs model group” value [2, 7] of the same compound?
Answer: notably reduce PGE2 content

Question: And the “ability against liver lipid peroxidation compared with AD group” value ([2]; high dosage 0.88 mmol/kg)?
Answer: stronger resistant ability against liver lipid peroxidation

Question: What about the “protective effect against liver damage induced by ConA (summary)” value (shortened to “protective effect … by ConA (summary)”) [2] of the same compound?
Answer: notably protective effect

Question: `NC(=O)c1ncn([C@@H]2O[C@H](CO)[C@@H](O)[C@H]2O)n1` [Ribavirin(R), Ribavirin, reference compound] was tested. Which “TI value (therapy index, TC50/IC50)” value [3] did it give?
Answer: 4

Question: `C=C1CC[C@@H]2[C@](C)(CO)[C@H](O)CC[C@@]2(C)[C@@H]1C/C=C1/C(=O)OC[C@H]1O` [AD, andrographolide] was tested. Which “TI value (therapy index, TC50/IC50)” value [3] did it give?
Answer: 14.4

Question: And the “protective effect against liver damage induced by carbon tetrachloride (summary)” value [1]?
Answer: Obvious Protective Effect

Question: And the “MDA content … vs model group” value ([2]; AD 0.88 mmol/kg, compounds at different dosages, P<0.05)?
Answer: can reduce the MDA content

Question: And the “liver histopathologic section (HE staining)” value ([2]; HE stain, 200x, FIG. 5)?
Answer: liver cells are slightly swelled and loosed, a portion of liver cells show spotted necrosis and degeneration, no focal necrosis involving massive liver cells is observed

Question: And the “protective effect … by ConA (summary)” value [2]?
Answer: Obvious Protective Effect

Question: With `C=C1CCC2C(C)(CO)C(O)CCC2(C)C1C=CC1=CC(=Cc2ccccc2)OC1=O` (stereo not shown) [B] as the compound, how does the “ALT activity in serum vs model group” value [4, 8] read?
Answer: effectively suppress

Question: And the “AST activity in serum vs model group” value [4, 8]?
Answer: effectively suppress

Question: What about the “MDA content … vs model group” value [4, 8] of the same compound?
Answer: effectively reduce the MDA content

Question: What about the “ALT activity decreasing magnitude compared with AD group” value ([4]; high dosage 0.88 mmol/kg, P<0.01 (A), P<0.05 (B)) of the same compound?
Answer: notably larger

Question: And the “protective effect against liver damage induced by ethanol (summary)” value ([4]; mice, intragastric, 3 days)?
Answer: protective effect

Question: And the “ALT activity in serum vs model group” value [1]?
Answer: notably suppress the increase

Question: And the “AST activity in serum vs model group” value [1]?
Answer: notably suppress the increase

Question: And the “MDA level in liver homogenate vs model group” value [1]?
Answer: effectively reduce

Question: And the “PGE2 level in liver homogenate vs model group” value [1]?
Answer: effectively reduce

Question: And the “magnitude of decrease in ALT activity” value [1, 5]?
Answer: significantly better

Question: And the “magnitude of decrease in AST activity” value [1, 5]?
Answer: significantly better

Question: What about the “magnitude of decrease in ALT activity” value [1, 6] of the same compound?
Answer: significantly better

Question: What about the “magnitude of decrease in AST activity” value [1, 6] of the same compound?
Answer: significantly better

Question: And the “PGE2 content compared to AD group” value ([1]; low dosage 0.66 mmol/kg)?
Answer: notably lower

Question: And the “ability to reduce lipid peroxide level in liver homogenate compared to AD group” value ([1]; low dosage 0.66 mmol/kg)?
Answer: stronger ability to reduce the lipid peroxide level

Question: And the “protective effect against liver damage induced by carbon tetrachloride (summary)” value [1]?
Answer: protective effect

Question: What about the “enzyme (ALT, AST) lowering effect compared to AD group” value ([2]; P<0.05) of the same compound?
Answer: better enzyme lowering effect

Question: And the “MDA content … vs model group” value [2, 7]?
Answer: more obvious effect

Question: And the “PGE2 content in liver homogenate vs model group” value [2, 7]?
Answer: notably reduce PGE2 content

Question: What about the “ability against liver lipid peroxidation compared with AD group” value ([2]; high dosage 0.88 mmol/kg) of the same compound?
Answer: stronger resistant ability against liver lipid peroxidation

Question: And the “protective effect … by ConA (summary)” value [2]?
Answer: notably protective effect
